Data as given in patent US20050080247A1, “Leinamycin biosynthesis gene cluster and its components and their uses” (priority 2001, published 2005).
Read-outs that look alike come from different tables or passages of the source.

Experiments:
[1] = cited from earlier work; for t1/2: aqueous condition
[2] = tested on: murine tumor models (HeLa S3, sarcoma180, B-16, Colon 26, leukemia P388); details: cited from earlier work
[3] = tested on: Gram-positive and Gram-negative bacteria; details: cited from earlier work
fungi = details: cited from earlier work
DNA = details: in the presence of thiol agents as cofactors; cited from earlier work
S. atroolivaceus = assay: Antibiotic sensitivity (growth inhibition) of S. atroolivaceus; assay type: cell-based, Streptomyces atroolivaceus; details: for complete inhibition of growth: concentration giving complete inhibition of growth of S. atroolivaceus; for sensitivity of S. atroolivaceus: result in words
Procedure: S. atroolivaceus grows very well at 30° C.; it doesn't grow at temperature beyond 35° C. […] Thus, E. coli-Streptornyces shuttle vectors pOJ260 (suicide vector, Am^R) and pKC1139 (self-replicating vector, Am^R) were chosen to make the gene-disruption constructs pYC12 and pYC20, respectively. The concentration of antibiotic (Am) for selection of transformants/exconjugates is 50 μg/ml.

For `C/C1=C\[C@@H](O)C(=O)/C=C/C=C\c2csc(n2)[C@@H](C)NC(=O)C[C@@]2(CC1)[S+]([O-])SC(=O)[C@]2(C)O` (stereo partly shown) [Lnm, Leinamycin], which t1/2 ([1]; pH 6) is on record?
Its t1/2 is over 20 h.

What about the t1/2 ([1]; pH 7) of the same compound?
The t1/2 was 8 h.

What about the t1/2 ([1]; pH 8) of the same compound?
The t1/2 was under 1 h.

And the “t1/2 in the presence of a thiol” value ([1]; in the presence of a thiol, compared with aqueous condition alone)?
The value was “even shorter t1/2”.

What about the “activity against drug-resistant tumors” value ([2]; murine models inoculated with tumors resistant to cisplatin, doxorubicin, mitomycin or cyclophosphamide) of the same compound?
The value was “active”.

And the antitumor activity ([2]; murine tumor models in vivo, including HeLa S3, sarcoma180, B-16, Colon 26, leukemia P388)?
Its antitumor activity is “potent antitumor activity”.

What about the antimicrobial activity [3] of the same compound?
The antimicrobial activity was “broad spectrum of antimicrobial activity”.

And the antimicrobial activity (fungi)?
Its antimicrobial activity is “not against fungi”.

And the DNA cleavage (DNA)?
Its DNA cleavage is “single-strand scission of DNA”.

For `CN[C@@H]1[C@@H](O[C@H]2O[C@H](CO)[C@@H](N)[C@H](O)[C@H]2O)OC2C[C@@H](N)[C@@H](O[C@H]3[C@H](O)[C@@H](O)[C@H](N)C[C@@H]3N)OC2[C@@H]1O` (stereo partly shown) [apramycin], which “complete inhibition of growth” value (S. atroolivaceus) is on record?
The value was 10 µg/mL.

And the “sensitivity of S. atroolivaceus” value (S. atroolivaceus)?
The value was “sensitive”.

Which “complete inhibition of growth” value (S. atroolivaceus) does the source give for `C=C(NC(=O)C(=C)NC(=O)c1csc(C2=N[C@@H]3c4csc(n4)[C@H]4NC(=O)c5csc(n5)[C@H]([C@](C)(O)[C@@H](C)O)NC(=O)[C@H]5CSC(=N5)/C(=C/C)NC(=O)[C@H]([C@@H](C)O)NC(=O)c5csc(n5)[C@]3(CC2)NC(=O)[C@H](C)NC(=O)C(=C)NC(=O)[C@H](C)NC(=O)[C@H]([C@@H](C)CC)N[C@@H]2C=Cc3c([C@H](C)O)cc(nc3[C@H]2O)C(=O)O[C@@H]4C)n1)C(N)=O` [thiostrepton] here?
The value was 3 µg/mL.

And the “sensitivity of S. atroolivaceus” value (S. atroolivaceus)?
Its value is “sensitive”.
